Where “and” joins values, the source holds several entries; their conditions need not be identical. Equal entries are not always repeated. Entries after “also recorded” stand apart in the source; their conditions may differ. Where two headings read alike, the source gives them in different places.
Tests used:
human VDR [1] = molecular target: T1, human VDR (Homo sapiens, UniProt P11473)
T1 sequence (P11473 1-427): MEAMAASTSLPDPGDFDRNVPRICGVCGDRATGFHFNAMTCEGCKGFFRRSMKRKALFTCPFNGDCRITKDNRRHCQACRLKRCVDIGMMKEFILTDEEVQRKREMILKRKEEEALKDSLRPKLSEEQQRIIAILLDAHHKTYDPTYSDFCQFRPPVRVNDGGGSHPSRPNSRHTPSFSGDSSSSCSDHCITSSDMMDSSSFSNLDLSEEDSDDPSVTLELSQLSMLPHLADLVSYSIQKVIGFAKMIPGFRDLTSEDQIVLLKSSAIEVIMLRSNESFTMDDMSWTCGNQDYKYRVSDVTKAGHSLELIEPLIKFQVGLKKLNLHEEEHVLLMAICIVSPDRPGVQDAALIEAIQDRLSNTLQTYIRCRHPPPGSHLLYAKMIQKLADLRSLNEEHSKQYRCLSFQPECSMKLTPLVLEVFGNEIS

human VDR [2] = molecular target: T1, human VDR; assay: Transient transactivation assay (CYP24-Luc), agonist mode, HEK293T cells
[3] = molecular target: human VDR ligand-binding domain; set-up: method as in PMID 21543282; details: agonist mode, cited from earlier work; for AC50: Tox21 qHTS data set, * = range of values
VDR:SRC-1 = VDR:SRC-1 (Homo sapiens, UniProt P11473); assay: Mammalian 2-hybrid assay, recruitment of coactivator SRC-1 by VDR, Cos7 cells
[4] = molecular target: T2, VDR:RXR, VDR:SRC-1 and VDR:NCoR interactions (Homo sapiens, UniProt P11473); assay: Mammalian 2-hybrid assay, summary in words of VDR coregulator interactions; format: cell-based
T2 sequence (P11473 1-427): T1 sequence (P11473 1-427)

VDR:NCoR = molecular target: T3, VDR:NCoR (Homo sapiens, UniProt P11473); assay: Mammalian 2-hybrid assay, recruitment of corepressor NCoR by VDR, Cos7 cells
T3 sequence (P11473 1-427): T1 sequence (P11473 1-427)

human VDR [5] = molecular target: T1, human VDR; assay: Transient transactivation assay (CYP24-Luc), antagonist mode with 3 nM 1,25D3, HEK293T cells; format: cell-based
VDR:RXRα = molecular target: T4, VDR:RXRα (Homo sapiens, UniProt P11473); assay: Mammalian 2-hybrid assay, recruitment of RXRα by VDR, Cos7 cells
T4 sequence (P11473 1-427): T1 sequence (P11473 1-427)

[6] = molecular target: human VDR ligand-binding domain; set-up: method as in PMID 21543282; details: read-out: Tox21 IC 50, cited from earlier work
[7] = AC50 (μM), experimental AC50 as listed in Fig 4a, agonists
[8] = Derived AC50 (Transient transactivation assay), agonist mode, HEK293T cells, CYP24A1-Luc
[9] = agonists, orthogonal transient transactivation assay, HEK293T cells
[10] = agonists, -RXR (empty pSG5), percentage of vitamin D3, conc. in Fig 5: ergocalciferol 60, lithocholic acid 50, calcipotriol 0.05, ethylphenol compound 40, 9 aminoacridine 50, tamoxifen citrate 20 μM
[11] = Derived AC50 (Transient transactivation assay)
[12] = read-out: Derived IC 50 (Transient transactivation assay)
[13] = top asymptote of Hill or Gain-Loss model, maximum response
[14] = read-out: Derived AC50 (Transient transactivation assay)

## Cc1cc(Cc2cc(C)cc(C(C)(C)C)c2O)c(O)c(C(C)(C)C)c1 [2,2′-methylenebis(6-tert-butyl-4-methylphenol)]
Human VDR [1]
  Derived Efficacy (fold induction): 29.470 fold induction
Human VDR [2]; [7]
  AC50: 4.62 µM
Human VDR [2]; [8]
  AC50: 9.32 µM
Human VDR [2]; [9]
  Activity: Active
[3]
  AC50: 32.1 µM
VDR:SRC-1; [10]
  % Induction, pMSRC-1NR + EpSG5: 8.2%

## Cc1cccc2c1cc1ccc3cccc4ccc2c1c34 [7 methyl benzo (a) pyrene]
Human VDR [1]
  Derived Efficacy (fold induction): 19.1624 fold induction
Human VDR [2]
  Activity: Active
Human VDR [2]; [11]
  AC50: 10.6 µM
[3]
  AC50: 2.54 µM
[4]
  pattern of VDR:coregulator interaction facilitated by the ligand: Interaction between VDR:RXR only in the presence of co transfected SRC-1

## Cl.Nc1c2ccccc2nc2ccccc12 [9 Aminoacridine monohydrochloride]
Human VDR [1]
  Derived Efficacy (fold induction): 44.5165 fold induction
Human VDR [2]; [7]
  AC50: 10.9 µM
Human VDR [2]; [8]
  AC50: 12.6 µM
Human VDR [2]; [9]
  Activity: Active
[3]
  AC50: 4.25 to 11.1 µM
VDR:SRC-1; [10]
  % Induction, pMSRC-1NR + EpSG5: 14.4%
VDR:NCoR; agonists, -RXR, fold induction compared to DMSO, 9 aminoacridine at 50 μM in Fig 5
  Fold Change (pMNCoR + EpSG5): 67.7 fold

## c1csc(-c2ccc(-c3cccs3)s2)c1 [Alpha-Terthiophene]
Human VDR [1]
  Derived Efficacy (fold induction): 19.9132 fold induction
Human VDR [2]; [8]
  AC50: 0.305 µM
Human VDR [2]; [9]
  Activity: Active
[3]
  AC50: 15.7 µM
[4]
  pattern of VDR:coregulator interaction facilitated by the ligand: Interaction between VDR:RXR only in the absence of full length SRC-1

## [Cl][Cd][Cl] [Cadmium chloride]
[4]
  pattern of change of 1,25D3 induced VDR:coregulator interaction: enhanced recruitment of VDR:RXR and VDR:SRC-1 in both the presence and absence of co-expressed coregulators
Human VDR [5]
  Activity: Active
  Derived Efficacy (fold inhibition): 44.5165 fold inhibition
Human VDR [5]; [12]
  IC50: 0.38 µM
VDR:RXRα
  % Induction (pMRXRα + EpSG5): 175
VDR:NCoR
  Fold Change (pMNCoR + EpSG5): 1.1
[6]
  IC50: 0.171 µM

## CC(C)C[C@H](NC(=O)[C@H](CCc1ccccc1)NC(=O)CN1CCOCC1)C(=O)N[C@@H](Cc1ccccc1)C(=O)N[C@@H](CC(C)C)C(=O)[C@@]1(C)CO1 [Carfizomib, reference compound]
Human VDR [2]; [9]
  Activity: very weak agonist activity
Human VDR [5]; antagonists, transient transactivation assay in the presence of 3 nM 1,25D3
  Activity: Active
Human VDR [5]; antagonists, transient transactivation assay in the presence of 3 nM 1,25D3, listed as carfizomib
  Activity: moderate to marked synergistic activity
Human VDR [5]; inhibition of 3 nM 1,25D3-induced response, HEK293T cells, unit given in Fig 3 legend, read-out: Derived IC 50 (Transient transactivation assay)
  IC50: 0.53 µM and 0.538 µM
Human VDR [5]; [13]
  Derived Efficacy (fold inhibition): 80.6485 fold inhibition
VDR:RXRα; antagonists with 1,25D3, -SRC-1, percentage of vitamin D3, conc. in Fig 6: phenylarsine oxide 0.37, dibutyltin dichloride 1, K dicyanoaurate 6, aristolochic acid, carfizomib 12, menadiol 3 μM
  % Induction (pMRXRα + EpSG5): 1908.1%
VDR:SRC-1; antagonists with 1,25D3, +RXR, percentage of vitamin D3, conc. in Fig 6: Cd chloride 12, dibutyltin dichloride 1, K dicyanoaurate 6, proscillaridin, aristolochic acid, carfizomib 12 μM
  % Induction (pMSRC-1NR + RXRα): 296%
[6]; antagonist mode, Tox21 qHTS data set
  IC50: 0.748 µM

## O=S(=O)(O)c1ccccc1C=Cc1ccc(-c2ccc(C=Cc3ccccc3S(=O)(=O)O)cc2)cc1.[Na].[Na] [Disodium 4,4′-bis(2-sulfostyryl) biphenyl]
Human VDR [1]
  Derived Efficacy (fold induction): 9.4578 fold induction
Human VDR [2]
  Activity: Active
Human VDR [2]; [14]
  AC50: 0.394 µM
[3]
  AC50: 18 µM
[4]
  pattern of VDR:coregulator interaction facilitated by the ligand: did not facilitate VDR:RXR or VDR:SRC-1 interactions under any condition

## CN1CCC(Nc2ncc3ncnc(Nc4ccc(F)c(Cl)c4)c3n2)CC1.Cl.Cl [Falnidamol dihydrochloride]
Human VDR [1]
  Derived Efficacy (fold induction): 9.9267 fold induction
Human VDR [2]
  Activity: consistently failed to exhibit any concentration response interactions; also recorded: Inactive
[3]
  AC50: 3.3 µM
  activity in the Tox21 qHTS data set: active
[4]
  pattern of VDR:coregulator interaction facilitated by the ligand: induced recruitment of RXR both in the presence and absence of co-transfected SRC-1
VDR:RXRα
  % Induction (pMRXRα + EpSG5): 5.3
  % Induction (pMRXRα + SRC- 1): 3.7

## O=C(NC(=O)c1c(F)cccc1F)Nc1ccc(OC(F)(F)C(F)OC(F)(F)F)c(Cl)c1 (stereo not shown) [Novaluron]
Human VDR [1]
  Derived Efficacy (fold induction): 16.3718 fold induction
Human VDR [2]
  Activity: Active
Human VDR [2]; [14]
  AC50: 37.4 µM
[3]
  AC50: 23.4 µM
[4]
  pattern of VDR:coregulator interaction facilitated by the ligand: Interaction between VDR:SRC-1 only in the absence of RXR
VDR:SRC-1
  % Induction, pMSRC-1NR + EpSG5: 0.9

## C[C@@H]1O[C@@H](O[C@@H]2C=C3CC[C@@H]4[C@H](CC[C@]5(C)[C@@H](c6ccc(=O)oc6)CC[C@]45O)[C@@]3(C)CC2)[C@H](O)[C@H](O)[C@H]1O [Proscillaridin, reference compound]
[4]
  pattern of change of 1,25D3 induced VDR:coregulator interaction: selectively inhibited VDR:SRC-1 interactions only in the presence of full length wild type RXR; also recorded: enhanced the interaction between VDR:RXR only in the presence of co transfected SRC-1
Human VDR [5]
  Activity: Active
  Derived Efficacy (fold inhibition): 14.1669 fold inhibition
Human VDR [5]; Derived IC 50 (Transient transactivation assay)
  IC50: 1.89 µM and 1.9 µM
VDR:NCoR
  Fold Change (pMNCoR + EpSG5): 2.8
[6]
  IC50: 0.0433 µM

## Nc1nc(N)c2nc(CNc3ccc(C(=O)N[C@@H](CCC(=O)O)C(=O)O)cc3)cnc2n1 [reference compound]
Human VDR [1]
  Activity: Active
Human VDR [2]; [11]
  AC50: 33.7 µM
Human VDR [2]; [13]
  Derived Efficacy (fold induction): 16.3718 fold induction
[3]
  AC50: 11.8 µM
[4]
  pattern of VDR:coregulator interaction facilitated by the ligand: did not facilitate VDR:RXR or VDR:SRC-1 interactions under any condition

## Cadmium acetate dihydrate
[4]
  pattern of change of 1,25D3 induced VDR:coregulator interaction: enhanced the interaction between VDR:RXR only in the presence of co transfected SRC-1
Human VDR [5]
  Activity: Active
  Derived Efficacy (fold inhibition): 20.5478 fold inhibition
VDR:RXRα
  % Induction (pMRXRα + SRC- 1): 165.6
VDR:SRC-1
  % Induction (pMSRC-1NR + RXRα): 46.7
  % Induction, pMSRC-1NR + EpSG5: 51.7
[6]
  IC50: 0.271 µM

## Cadmium reference solution
Human VDR [5]
  Activity: Active
  Derived Efficacy (fold inhibition): 76.1807 fold inhibition
Human VDR [5]; [12]
  IC50: 0.198 µM
VDR:RXRα
  % Induction (pMRXRα + EpSG5): 23.7
  % Induction (pMRXRα + SRC- 1): 16
VDR:SRC-1
  % Induction (pMSRC-1NR + RXRα): 0.9
  % Induction, pMSRC-1NR + EpSG5: 1.3
VDR:NCoR
  Fold Change (pMNCoR + EpSG5): 0.7
